In patent US20090047368A1, “Polymeric polyphenol extracted from fermented tea, therapeutic agent for mitochondrial disease, preventive/therapeutic agent for diabetes mellitus, and food or beverage” (University Of Tsukuba, priority 2004, published 2009):

Tested on: B6 mice (C57BL)
Assay: Blood glucose in B6 mice, high- versus low-molecular-weight polyphenols
Type: in vivo
Conditions: 0.27 mg/day intraperitoneal, 15 days
Description: The procedures for the experiment were similar to those employed in Example 7. In this experiment, B6 mice (C57BL; purchased from CLEA Japan, Inc.) were used. […] The low-molecular-weight polyphenol group was given a PBS solution of epicatechin daily through intraperitonal injection at a dose of 0.27 mg/day. Blood samples were collected on the first day of the administration and 15 days thereafter for the measurement of blood glucose levels. […] The horizontal axis in the figure represents the number of days from the start of the administration. The vertical axis represents percentage (%) changes in blood glucose based on the blood glucose level on the first day at 100.

Oc1cc(O)c2c(c1)O[C@H](c1ccc(O)c(O)c1)[C@H](O)C2 [low-molecular-weight polyphenols, epicatechin]
decrease in blood glucose relative to the first day (100): little change
